These results are taken from patent publication EP4806449A1, “ANTIVIRAL FOOD PRODUCT” (Creaciones Aromáticas Industriales, S.A., priority 2023, dated 2025).

Structures are written as SMILES. Converted amounts (≈) assume the structure as drawn.

Series [1] can be described thus: Toxicity controls without virus (MTT cell viability). Conditions: human; MRC-5 cells without 229E virus; 4.5h treatment; MTT after 5 days. The series is classed as cell-based. The method, then: (§1) The MRC-5 cell line (lung-derived fibroblasts) from the American Type Culture Collection (ATCC) (CCL-171) was used. Cells were kept at 37°C and 5% CO2 in Eagle minimum essential medium (EMEM) supplemented with 10% foetal bovine serum (FBS) and antibiotics, trypsinising every 3-4 days, before reaching 90% confluence. Coronavirus 229E was obtained from the ATCC (VR-740) and amplified in MRC-5 cells, according to the ATCC protocol.
(§2) In both experiments, 5 days post-infection, differences in cell viability associated with the cytopathic effect of the virus or toxicity of the treatments were analysed by means of the MTT assay. The MTT assay is a colorimetric assay that measures the activity of enzymes that transform the MTT (methylthiazolyldiphenyl-tetrazolium bromide) molecule to formazan, purple in colour. Briefly, the medium was aspirated from the wells and 0.1 ml of 1 mg/ml MTT solution in EMEM was added to each well, and incubated at 37°C for 2 hours. Next, the MTT solution was aspirated, formazan crystals were dissolved in 0.1 ml of DMSO and absorbance was read at 570 nm (reference 660 nm). The mean absorbance values of the uninfected controls was considered to be 100% cell viability.
(§3) In order to evaluate the results, the following variables were calculated: • CC50: Half maximal cytotoxic concentration, which is the concentration of the compound of interest causing 50% toxicity. […]

The subject of the next series is MRC-5 cells. Described as above. The class given is cell-based. Conditions: MRC-5 cells without 229E virus; 4.5h treatment; MTT after 5 days. The method, then:
as §1, §2, §3

Series [2] has as its system human coronavirus 229E. Conditions: positive control, dose range 0.06-264 µg/ml.
Protocol: (§4) In this study, the ability of the product object of the invention to inhibit the infectivity of human coronavirus 229E was determined. To that end, different concentrations of grape extract were incubated together with a defined concentration of the virus of interest for 30 minutes. Exposure of host cells to the virus causes the virus to replicate within the cells, which produces a cytopathic effect on the cells that is quantified by means of a cell viability assay after 5 days of exposure.
(§5) The MRC-5 cell line (lung-derived fibroblasts) from the American Type Culture Collection (ATCC) (CCL-171) was used. […]
(§6) A stock solution of the test substance was prepared in dimethyl sulfoxide (DMSO) at 100 mg/ml. […] Next, 0.25 ml of each dilution were mixed with 0.25 ml of a 229E inoculum diluted in 2% FBS EMEM medium, with the inoculum at an infectious concentration of 1000 TCID50/ml and the maximum concentration of the extract at 1 mg/ml (concentration range analysed in the medium: 7.81-1000 µg/ml). […]
(§7) To that end, a stock solution of the test substance was prepared in dimethyl sulfoxide (DMSO) at 50 mg/ml. […] Next, 0.25 ml of each dilution were mixed with 0.25 ml of a 229E inoculum diluted in 2% FBS EMEM medium, with the inoculum at an infectious concentration of 1000 TCID50/ml and the maximum concentration of the extract at 1 mg/ml (concentration range analysed in the medium: 0.78125 µg/ml - 100 µg/ml). […]
Series [3] deals with human coronavirus 229E. Kind of series: microbe, parasite or virus in culture. Conditions: MRC5.
Protocol: as §4, §5, §6, §7

A word on the CC50: it is the concentration giving 50% cytotoxicity. A word on the EC50: it is the concentration that produces a half-maximal response. As to `CCN(CC)CCCC(C)Nc1ccnc2cc(Cl)ccc12` (stereo not shown) [Chloroquine, chloroquine], in series [1], the CC50 at 4.5 h is greater than 264 µg/mL. The compound also registered a CC50 with MRC-5 cells greater than 264 µg/mL. Also, the “clear antiviral effect starting from” value with human coronavirus 229E [2] is no less than 16.5 µg/mL. In the series on human coronavirus 229E [3], this compound returned an EC50 of 5.96 µg/mL (≈ 18.6 µM).
